Results published in patent US10766857B2, “Compound having BLT inhibitory activity and composition, for preventing or treating inflammatory diseases, comprising same as active ingredient” (DONGGUK UNIVERSITY INDUSTRY-ACADEMIC COOPERATION FOUNDATION, priority 2015, dated 2020).
pIC50: −log10 of the molar value.

Experiments:
[1] = tested on: severe asthma-induced mice; assay: OVA-induced asthma mice: AHR and IL-4; format: in vivo; conditions: pre-treated at 10 μM (so in the source)
Excerpt: Mast cells play a pivotal role in the initial reaction to asthma, and when an allergen enters the body from the outside through an airway, the mast cells are activated, thereby secreting various cytokines (interleukin-4 and interleukin-13). Due to the cytokines, the influx of inflammatory cells, the generation of mucus and the airway contraction occur. The inventors used 7-week-old (18 to 20 g) female BALB/c mice provided by Orient (Seoungnam, Korea) for the experiment to confirm the antiasthma effect, and then the asthma was induced in the mice. […] On the 24th day of the initial sensitization, airway hyperresponsiveness (AHR) was detected, and on the 25th day, the mice were dissected to observe asthma phenotypes, for example, inflammatory cytokine IL-4 expression and the influx of inflammatory cells (neutrophils). […] On the 23rd day of the initial sensitization, AHR was detected, and on the 24th day, the mice were dissected to observe a severe asthma phenotype, for example, the influx of the inflammatory cells (neutrophils). […] The AHR was analyzed using an enhanced pause as the indicator of the asthma phenomenon. Bronchoalveolar lavage fluid cell counts were quantified by counting cells under an optical microscope (magnification, 200×). In each analysis, 4 fields were subjected to counting, each sample was analyzed twice, and the analysis was repeated three times.

[2] = molecular target: T1, BLT2 (Homo sapiens, UniProt Q9NPC1); assay: LTB4-induced chemotactic motility, Transwell, CHO-BLT2 cells; format: cell-based; conditions: LTB4 300 nM
T1 construct: HA; expressed in transfected cells
T1 sequence (Q9NPC1 with tags, fused parts or gaps): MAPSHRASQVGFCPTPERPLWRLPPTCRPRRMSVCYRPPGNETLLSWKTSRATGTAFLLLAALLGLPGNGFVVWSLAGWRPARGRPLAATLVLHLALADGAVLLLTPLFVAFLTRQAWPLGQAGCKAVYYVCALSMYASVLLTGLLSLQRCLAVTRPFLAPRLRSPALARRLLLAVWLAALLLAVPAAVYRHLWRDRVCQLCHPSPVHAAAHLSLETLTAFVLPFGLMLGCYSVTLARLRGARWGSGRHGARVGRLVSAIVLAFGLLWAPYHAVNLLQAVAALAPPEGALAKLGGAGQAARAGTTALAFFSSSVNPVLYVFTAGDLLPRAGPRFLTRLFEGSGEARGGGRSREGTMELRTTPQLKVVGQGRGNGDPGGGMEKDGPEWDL
Experimental: Chemotactic motility was analyzed using a Transwell chamber including a polycarbonate filter (8-μm pore size, Corning Costar) with a 6.5-mm diameter. Specifically, the lower surface of the filter was coated with 10 μg/mL fibronectin in a serum-free RPMI 1640 medium at 37° C. for 1 hour. The experiment was performed by placing the filter dried and coated with RPMI 1640 media containing various amounts of LTB4 in the lower wells of the Transwell chamber, and loading CHO cells stably expressing BLT1 and BLT2 into the upper wells containing serum-free RPMI 1640 media finally at 2×10^4 cells/100 μL. To evaluate the effect of inhibitors, the cells were pre-treated with each inhibitor for 30 minutes before dispensing. After the cells were cultured at 37° C. in 5% CO2 for 3 hours, the filters were fixed with methanol for 3 minutes, and stained with hematoxylin and eosin for 10 minutes. In the experiment, the cells were BLT2-expressing cells (CHO-BLT2 cells) and BLT1-expressing cells (CHO-BLT1 cells), and LY255283 and U75302 were used as positive controls for each type of the cells, and BLT2 ligand LTB4, (300 nM), BLT1 ligand LTB4 (10 nM), and lysophosphatidic acid (LPA; 100 nM) were used as comparative controls. The chemotactic motility was quantitatively analyzed by counting the cells on the lower side of the filter under an optical microscope (magnification, 200×). For each analysis, 6 fields were subjected to counting, each sample was analyzed twice, and the analysis was repeated three times.

[3] = tested on: MDA-MB-231 cells; assay: IL-8 expression (RT-PCR); format: cell-based
Experimental: (§1) The breast cancer cells such as the MDA-MB-231 cells were obtained from Korean Cell Line Bank (Seoul, Korea), and the MDA-MB-435 cells were provided by J. H. Lee (Asan Medical Center, Seoul, Korea). These cells were cultured in an RPMI 1640 medium (Invitrogen) containing 10% FBS (Life Technologies, Inc.), 1% penicillin (50 units/mL), and an antibiotic antimycotic solution (Life Technologies, Inc.) at 37° C. under a 5% CO2 condition.
(§2) To confirm the IL-8 expression according to the treatment of the compound of the present invention, total RNA was isolated from cells using Easy Blue (Intron, Sungnam, Korea), and quantified by absorbance at 260 nm. Complementary DNA (cDNA) was synthesized with the RNA (1.25 μg) through reverse transcription using a polymerase chain reaction (PCR) technique. An expression level was determined using primers specifically binding to IL-8 and glyceraldehyde-3-phosphate dehydrogenase (GAPDH).

[4] = tested on: MDA-MB-435 cells; assay: IL-8 expression (RT-PCR); format: cell-based
Experimental: as §1, §2

Q: How did the AHR reduced ([1]; airway constrictor 50 mg/ml) turn out when `CCCCC(=O)N(CC#Cc1ccc(C(=O)N2CCN(C(C)C)CC2)cc1)c1ccccc1` [LMT-696, N-(3-(4-(4-isopropylpiperazine-1-carbonyl)phenyl)prop-2-ynyl)-N-phenylpentaneamide] was run?
A: Its AHR reduced is 70%.

Q: And the “generation of IL-4 reduced” value ([1]; cells isolated from the abdominal cavity of the mice)?
A: The value was 70%.

Q: And the inhibition at 10 µM ([2]; 10 μM pre-treatment, read-out: chemotactic motility inhibited compared with LTB4 (DMSO+))?
A: The inhibition at 10 µM was 70.3%.

Q: And the pIC50 ([2]; serum-free, read-out: IC50 of chemotactic motility inhibition)?
A: The pIC50 was 5.70.

Q: And the IL-8 expression level [3]?
A: Its IL-8 expression level is “significantly inhibited”.

Q: What about the IL-8 expression level [4] of the same compound?
A: Its IL-8 expression level is “significantly inhibited”.
